According to patent US10881709B2, “Immune system modulators and compositions” (Canimguide Therapeutics AB, priority 2015, dated 2021):
Peptide text beside a SMILES is read from it.

Experiments:
[1] = test system: spontaneous canine tumours; assay: Intra-tumoral treatment of spontaneous tumours in dogs; assay type: in vivo; settings: single dog
Procedure: Seventeen spontaneous canine tumours, of variable histology have been treated by intra-tumoral injection of 40 nmol P28R in 200 microliters. The tumours were resected 3-5 days later, immediately snap frozen and stored at −80° C. until further processed. A detailed description of treatment of the tumors is provided below (see Examples 50-60). In these examples, 15 control dogs with untreated tumours (5 snap frozen and 10 FFPE) were also examined.
A summary is provided for 7 dogs with treated mammary tumours and 5 untreated control dogs (see FIG. 88). Tumour cells (881 for treated dogs, 882 for untreated control dogs) and lymphocytes (883 for both treated dogs and untreated control dogs) were counted at 400× magnification. The ratio between these cells was used as a measure on the inflammatory infiltrate (FIG. 88). The reproducibility and the influence of tumour heterogeneity on cell counts were evaluated by counting several areas from each tumour section.
The therapeutic efficacy was evaluated as the presence of an inflammatory infiltrate and the occurrence of tumour cell regressive changes. As migration of effector cells close to tumour cells is one important, but often inhibited function of these cells, the effect of P28R was specifically evaluated as the presence of inflammatory cells infiltrating into the tumour cell areas close to the tumour cells. […]

[2] = Toxicological study and observation of side effects in dogs; assay type: in vivo, dog; settings: 200 nM in 1 mL subcutaneously and 40 nM in 200 microliters intra-tumourally
Procedure: So far nine dogs have been treated with P28R in accordance with some embodiments herein, 4 in the toxicological study (CiToxLab, Denmark) with 200 nM administered in 1 mL subcutaneously and 5 dogs in the treatment study reported here with 40 nM in 200 microliters intra tumourally.
More than 20 dogs have been treated with P28R, including 4 in the toxicological study (CiToxLab®, Denmark) with 200 nM administered in 1 mL subcutaneously and 17 dogs in the treatment study reported here with 40 nM in 200 microliters intra-tumourally.

[3] = Toxicological aspects of P28R in dogs (systemic side effects); assay type: in vivo, dog; settings: 21 dogs: 4 with 200 nM in 1 mL subcutaneously, 17 with 40 nM in 200 microliters intra-tumourally
Procedure: Twenty-one dogs have been treated with P28R, 4 in the toxicological study (CiToxLab®, Denmark) with 200 nM administered in 1 mL subcutaneously and 17 dogs in the treatment study reported here with 40 nM in 200 microliters intra-tumourally.

With CC(C)C[C@H](NC(=O)[C@H](CO)NC(=O)[C@H](CC(C)C)NC(=O)[C@H](CCCCN)NC(=O)[C@@H](NC(=O)[C@H](Cc1ccccc1)NC(=O)[C@H](Cc1ccccc1)NC(=O)[C@@H](NC(=O)[C@H](CC(=O)O)NC(=O)[C@H](CC(C)C)NC(=O)[C@H](CCCCN)NC(=O)[C@@H](N)CCCCN)[C@@H](C)O)C(C)C)C(=O)N[C@@H](Cc1ccccc1)C(=O)N[C@H](C(=O)N[C@@H](CCC(=O)O)C(=O)N[C@@H](CCCNC(=N)N)C(=O)O)[C@@H](C)O [P28R] (H-KKLDTFFVKLSLFTER-OH; N-terminus and C-terminus assumed) as the compound, how does the “clinical observations after injection until resection” value [1] read?
Its value is “No systemic adverse events were observed”.

And the systemic side effects [2]?
The systemic side effects was “None of these dogs showed any systemic side effects”.

And the systemic side effects [3]?
The systemic side effects was “None of these dogs showed any systemic side effects”.
